The record followed here is US11820762B2, “Compounds as potential therapeutic agents targeting various neurodegenerative diseases” (The Hong Kong University of Science and Technology, priority 2020, dated 2023).

Data set [1] concerns RNA (G4C2)2 (SEQ ID NO: 8) G4. Kind of data set: 1D 1H-NMR titration of RNA (G4C2)2 G4. In kind it is binding. As to conditions: ratios 1:3, 1:5, 1:10. As to the method: (§1) Single […] were purchased from Integrated DNA Technologies (IDT) and Takara. Single-strand DNA/RNA sample at 100 μM was then annealed by heating up to 95° C. for 15 mins, and slowly cooled to room temperature in the annealing buffer (70 mM KCl, 20 mM potassium phosphate (pH 7.0)) for overnight. The final NMR samples contained 0.1 mM DNA or RNA in 70 mM KCl and 20 mM potassium phosphate buffer (pH 7.0).
The 1D ^1H-NMR spectra were performed at 25° C. All compounds were dissolved in isotope-labeled d6-DMSO (Sigma-Aldrich) at about 50 mM concentration, working as stock solutions. To avoid chemical shift changes of DNA/RNA G4 resulted from d6-DMSO addition, […] d6-DMSO was added into 500 μL of 0.1 mM DNA/RNA G4 solution in the NMR buffer (20 mM potassium phosphate buffer and 70 mM KCl, pH 7.0, 10% D2O) and then 1D ^1H-NMR spectrum was recorded as a reference. During NMR titration experiments of adding each compound into the DNA/RNA G4 solution, the maximal volume of 10 μL of each compound in d6-DMSO solution was regarded as a final data point. […]

The subject of data set [2] is human telomeric variant htel21_T18 G4. Kind of data set: 1D 1H-NMR titration of human telomeric variant htel21_T18 G4. It is filed as binding. The note with it: cA at 1:10. As to the method:
as §1
(§2) The 1D ^1H-NMR spectra were performed at 25° C. All compounds were dissolved in isotope-labeled d6-DMSO (Sigma-Aldrich) at about 50 mM concentration, working as stock solutions. To avoid chemical shift changes of DNA/RNA G4 resulted from d6-DMSO addition, […] d6-DMSO was added into 500 μL of 0.1 mM DNA/RNA G4 solution in the NMR buffer (20 mM potassium phosphate buffer and 70 mM KCl, pH 7.0, 10% D2O) and then 1D ^1H-NMR spectrum was recorded as a reference. During NMR titration experiments of adding each compound into the DNA/RNA G4 solution, the maximal volume of 10 μL of each compound in d6-DMSO solution was regarded as a final data point.
(§3) In addition to the four-repeat G4C2 DNA G4, there are parallel and hybrid G4 conformations formed simultaneously by the two-repeat G4C2 DNA^38,39. […]

Data set [3] in a line: Parallel artificial membrane permeability assay (PAMPA). In kind it is in vitro ADME. The note with it: 500 μM; 37° C., 18 hours. The protocol:
500 μL of 500 μM test compound and 200 μM Equilibrium Standards for each test compound were prepared. 5 μL DMSO plus 245 μL PBS served as blank control. Firstly, 300 μL PBS was added to each well in the acceptor plate. With the donor plate in its tray, 5 μL 4% Lecithin in Dodecane was added directly to the well membranes of the donor plate. 200 μL of each 500 μM test compound was added to duplicate wells of the donor plate. The donor plate was carefully placed into the acceptor plate wells and incubated at 37° C. for 18 hours. Then the liquid in acceptor plate wells was collected as Acceptor Solution for analysis. Absorbance spectrum from 200 nm to 500 nm in 10 nm intervals was read to determine the peak absorbance of test compounds and blank control.
In addition, we also tested the permeability on live cells. Neuro2a cells treated with cA at different concentrations (10 μg/ml, 20 μg/ml) for different incubation time (24 h, 48 h) were lysed. Supernatants of cell lysates were collected and analyzed by UPLC-MS. Meanwhile, cell media from different treatment groups were used as control. […] In contrast, the intensity of cA signal was the same in the three corresponding cell media groups (FIG. 25, 4-6).
On the technique in general: The PAMPA barrier holds no transporters, so it reflects passive diffusion.

In data set [4] the test system is DNA (G4C2)2 (SEQ ID NO: 4) G4. The data set is described as follows: 1D 1H-NMR titration of DNA (G4C2)2 G4. In kind it is binding. The note with it: cA at 1:1, 1:5, 1:10. The protocol:
as §1, §2, §3

For data set [5], the system named is DNA (G4C2)4 (SEQ ID NO: 5) G4. The data set is described as follows: 1D 1H-NMR titration of DNA (G4C2)4 G4. It is filed as binding. The note with it: for binding to DNA (G4C2)4 G4 by NMR titration: G4:compound ratio 1:1 to 1:10. As to the method:
as §1, §2
We next confirmed the binding of cA and DNA (G4C2)4 (SEQ ID NO: 5) G4 by NMR titration experiments.

For data set [6], the system named is differentiated HT22 cells. The data set is described as follows: cells. In kind it is cell-based. As to conditions: for EC50: Mus musculus, HT-22, differentiated HT22 cells pre-treated with 5 mM L-glutamate, cell viability; for neuroprotective activity compared with cA: comparison of analogs. As to the method:
Cytotoxicity of compounds was tested by MTT assay. Cells were grown in DMEM (Gibco) with 10% FBS and 1% penicillin-streptomycin at 37° C. with 5% CO2. In total, 5×10^3 cells were seeded in each well of 96-well plates and cultured for 24 hours. Then cells were treated with different concentrations of compounds dissolved in DMSO for another 24 hours. After incubating with 20 μl of MTT (5 mg/mL) for each well at 37° C. for another four hours, 100 μl of DMSO was added to dissolve formazan. Absorbance was measured using a Multiskan™ FC microplate photometer at 570 nm. IC50 data were analyzed with GraphPad Prism software.
Cultured HT22 cells were differentiated by applying 10 μM retinoic acid (Sigma-Aldrich, R2625-50MG) and 500 μM cAMP (Sigma-Aldrich, A6885) in DEME medium supplied with 0.5% FBS (differentiation medium) and incubated 48 hours before adding other treatments. 5 mM L-glutamate acid was applied to the original differentiation medium for further 24-hours incubation. Cell viability was measured by MTT assay described above.
In the C9orf72 associated ALS/FTD, the G4C2 HRE make motor neurons more vulnerable to aberrant neuron excitation^43. Meanwhile, the hyperactivation of glutamate receptors drives a toxic level of neuronal activity, promoting the non-ATG (RAN) translation of G4C2 repeat-associated DPR proteins^44, leading to further toxicity of motor neurons. Thus, we would like to test our compounds in a glutamate (E)-induced excitotoxicity cell model.

Another data set has as its target T1, Tau-R3 (Homo sapiens, UniProt P10636).
T1 construct: Tau-R3 protein was synthesized and purchased from ChinaPeptides Co., Ltd; purchased ChinaPeptides Co., Ltd; host or cells: chemical synthesis
The data set is described as follows: Thioflavin T (ThT) fluorescent tau-R3 aggregation assay. As to conditions: 20 μM Tau-R3, 10 μM heparin, read-out: IC50 of Tau-R3 aggregation inhibition (converted). It is filed as biochemical. As to the method: Tau-R3 protein was synthesized and purchased from ChinaPeptides Co., Ltd. ThT (ab120751, 1 mM) solution was freshly prepared in 50 mM Tris-HCl buffer (pH 7.4) and passed through a 0.45 μm pore size filter to remove insoluble particles before use. Tau-R3 (20 μM) was incubated with 20 μM ThT and 10 μM heparin in the presence or absence of cA, cB and cC. Samples in 200 μL were added to 96-well plates and incubated at 37° C. for 24-48 hours. ThT fluorescence intensity was recorded using a microplate reader with 440/480 nm excitation/emission filters at different time points. Non-linear regression analysis was performed to fit the boltzmann sigmoidal.
In the C9orf72 ALS/FTD, there is a strong genetic association between the microtubule-binding protein, tau and the G4C2 HRE. […] The co-expression of Tau and G4C2 repeats produces a synergistic deterioration of the neurodegeneration phenotype of ALS/FTD^46. Considering the tight correlation of Tau aggregation with the ALS/FTD pathogenesis, we tested our compounds in a non-cell-based Tau-R3 aggregation inhibition assay. […] Moreover, we conducted high magnification TEM imaging to characterize the morphological changes of Tau-R3 fibrils with cA, cB and cC treatments. […] Furthermore, the misfolding of tau protein into filaments in neurons of the central nervous system can be found in various neurodegenerative diseases, such as Alzheimer's disease et al. Therefore, the inhibition on tau aggregation represented a potential of cA and its derivatives in targeting multiple other neurodegenerative diseases more than ALS.

The next data set has as its target T2, RRM domain of hnRNP H (Homo sapiens, UniProt P31943).
T2 construct: HSQC spectra of RRM1/2 of hnRNP H; hexahistidine (cleaved yes); made in house; host or cells: Escherichia coli BL21(DE3), pET-28a(+)
T2 sequence (P31943 1-194 limits assumed): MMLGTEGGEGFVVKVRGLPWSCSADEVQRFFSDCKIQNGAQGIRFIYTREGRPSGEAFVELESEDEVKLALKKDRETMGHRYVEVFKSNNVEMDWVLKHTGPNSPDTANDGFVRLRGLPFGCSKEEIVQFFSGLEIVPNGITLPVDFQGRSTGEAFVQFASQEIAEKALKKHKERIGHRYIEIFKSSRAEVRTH
The data set is described as follows: 1H-15N HSQC NMR titration of hnRNP H RRM domain. It is filed as binding. The note with it: ratios 1:5 and 1:10. The protocol:
The coding sequence of the RRM domain of hnRNP H/F, or human Orc6 was inserted into the expression vector pET-28a(+) (Novagen). Protein was expressed in Escherichia coli BL21(DE3) at 37° C. for 5 hours. Cell lysates were subject to affinity purification with nickel-nitrilotriacetic acid resin (Qiagen) followed by cleavage of hexahistidine tag with Protease 3C enzyme. Products were further purified on a Superdex 75 column (GE Healthcare). For NMR studies, uniformly ^15N labeled protein was expressed and purified as described above, except for cells grown in M9 medium containing 100% ^15N enriched ammonium chloride (Cambridge Isotopes) and d-glucose.
Titration experiments were performed by recording a series of 2D ^15N-HSQC spectra on uniformly ^15N-labeled RRM domain (˜0.1 mM) in the presence of different amounts of DNA/RNA or compounds at 25° C. Protein samples and stock solutions of DNA/RNA were all prepared in 20 mM potassium phosphate buffer and 70 mM KCl, pH 7.0, 10% D2O. All compounds were dissolved in isotope-labeled d6-DMSO (Sigma-Aldrich) at about 50 mM concentration, working as stock solutions. To avoid chemical shift changes of protein samples resulted from d6-DMSO addition, 10 μL d6-DMSO was added into 500 μL of 0.1 mM protein solution in the NMR buffer (20 mM potassium phosphate buffer and 70 mM KCl, pH 7.0, 10% D2O) and then the 2D HSQC was recorded as a reference.
In this scenario, specific RNA-binding proteins (RBPs), like hnRNP H, are recruited by the RNA foci, resulting in RNA processing impairment and further cytotoxicity to the central nervous system^30,36,37. Therefore, we tested the binding possibility of cA with the RRM domain of hnRNP H by NMR titration. […] Intriguingly, the DNA (G4C2)4 (SEQ ID NO: 5) G4 was also shown a potent binding affinity to the RRM domain of hnRNP H (FIG. 4C).

One may read the EC50 as the concentration giving half of the maximal effect. As usually defined, the IC50 is the point on the concentration scale where inhibition reaches its midpoint.

SMILES strings stand for the structures.

T1 sequence (P10636 623-653 limits assumed): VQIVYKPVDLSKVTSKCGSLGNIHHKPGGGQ

On to `N=C(N)c1ccc(-c2ccc(-c3ccc(-c4ccc(C(=N)N)cn4)o3)o2)nc1` [DB1246, reference compound], for which, in data set [1], the “binding to RNA (G4C2)2 G4 by NMR titration” value was “strongly bound”. Besides, the “binding to htel21_T18 G4 by NMR titration” value in data set [2] is recorded as “strongly bound”. In addition, the “permeability (PAMPA)” value in data set [3] is reported as “much worse permeability than cA, cB, cC”. For the same compound, the “binding to DNA (G4C2)2 G4 by NMR titration” value in data set [4] is recorded as “strongly bound”. Also, the “binding to DNA (G4C2)4 G4 by NMR titration” value in data set [5] is “strongly bound”.
Consider `COc1c2c(c(O)c3c(=O)c4cccc(O[C@@H]5O[C@H](C(=O)O)[C@@H](O)[C@H](O)[C@H]5O)c4oc13)-c1c(cc(CC(C)=O)c(C(=O)O)c1O)CC2` [cD, chrexanthomycin D], for which, in data set [6], the “cytotoxicity (structure-activity summary)” value is recorded as “showed cytotoxicity”, the EC50 stood at 53.6 µM and the “neuroprotective activity compared with cA” value was “worse than cA”. In addition, the IC50 at Tau-R3 was 4.75 µM.
For the compound `COc1c2c(c(OC)c3c(=O)c4cccc(O[C@@H]5O[C@H](C(=O)O)[C@@H](O)[C@H](O)[C@H]5O)c4oc13)-c1c(cc(CC(C)=O)c(C(=O)O)c1O)CC2` [cE, chrexanthomycin E], in data set [6], the “cytotoxicity (structure-activity summary)” value was “showed cytotoxicity” and the “neuroprotective activity compared with cA” value is given as “worse than cA”. The IC50 on Tau-R3 is 6.13 µM.
For the compound `C[C@@]1(O)Cc2cc3c(c(O)c2C(=O)O1)-c1c(c(O)c(O)c2c(=O)c4cccc(O[C@@H]5OC(C(=O)O)=C[C@H](O)[C@H]5O)c4oc12)CC3` [cF, chrexanthomycin F], the “neuroprotective activity compared with cA” value in data set [6] is “worse than cA”. Also, at RRM domain of hnRNP H, the “binding to RRM domain of hnRNP H by NMR titration” value is given as “much weaker bindings”. In addition, the “binding affinity order according to NMR titration” value in data set [5] (DNA (G4C2)4 G-quadruplex and hnRNP H, FIGS. 3C-3E) was “cC>cA>cB>cF”. The “binding to DNA (G4C2)4 G4 by NMR titration” value in data set [5] is given as “proved to bind”.
Regarding `CC12CC3CC(C)(C1)CC(N)(C3)C2` [memantine, reference compound], the EC50 in data set [6] came out at 23.9 µM.
The same measure, in the same setting: next, `COCCOC(=O)C1=C(C)NC(C)=C(C(=O)OC(C)C)C1c1cccc([N+](=O)[O-])c1` (stereo not drawn) [nimodipine, reference compound]: 1.14 µM.
